This is an account of results in patent publication US20090069320A1, “Substituted 4-Amino-Quinazoline Compounds with Metabotropic Glutamate Receptor Regulating Activity and Uses Thereof” (Gruenenthal GmbH, priority 2006, published 2009).

SMILES strings stand for the structures.

In general, IC50 refers to the concentration at which inhibition is half-maximal. As usually defined, the inhibition is how much of the control response was suppressed.

In the first assay the target is T1, mGluR5 receptor (Sus scrofa, UniProt I3LUI7).
T1 construct: 450 μg of protein from brain homogenate with 5 nM ^3[H]-MPEP; from tissue; host or cells: pig brain halves without medulla, cerebellum and pons
T1 sequence (I3LUI7 19-1212): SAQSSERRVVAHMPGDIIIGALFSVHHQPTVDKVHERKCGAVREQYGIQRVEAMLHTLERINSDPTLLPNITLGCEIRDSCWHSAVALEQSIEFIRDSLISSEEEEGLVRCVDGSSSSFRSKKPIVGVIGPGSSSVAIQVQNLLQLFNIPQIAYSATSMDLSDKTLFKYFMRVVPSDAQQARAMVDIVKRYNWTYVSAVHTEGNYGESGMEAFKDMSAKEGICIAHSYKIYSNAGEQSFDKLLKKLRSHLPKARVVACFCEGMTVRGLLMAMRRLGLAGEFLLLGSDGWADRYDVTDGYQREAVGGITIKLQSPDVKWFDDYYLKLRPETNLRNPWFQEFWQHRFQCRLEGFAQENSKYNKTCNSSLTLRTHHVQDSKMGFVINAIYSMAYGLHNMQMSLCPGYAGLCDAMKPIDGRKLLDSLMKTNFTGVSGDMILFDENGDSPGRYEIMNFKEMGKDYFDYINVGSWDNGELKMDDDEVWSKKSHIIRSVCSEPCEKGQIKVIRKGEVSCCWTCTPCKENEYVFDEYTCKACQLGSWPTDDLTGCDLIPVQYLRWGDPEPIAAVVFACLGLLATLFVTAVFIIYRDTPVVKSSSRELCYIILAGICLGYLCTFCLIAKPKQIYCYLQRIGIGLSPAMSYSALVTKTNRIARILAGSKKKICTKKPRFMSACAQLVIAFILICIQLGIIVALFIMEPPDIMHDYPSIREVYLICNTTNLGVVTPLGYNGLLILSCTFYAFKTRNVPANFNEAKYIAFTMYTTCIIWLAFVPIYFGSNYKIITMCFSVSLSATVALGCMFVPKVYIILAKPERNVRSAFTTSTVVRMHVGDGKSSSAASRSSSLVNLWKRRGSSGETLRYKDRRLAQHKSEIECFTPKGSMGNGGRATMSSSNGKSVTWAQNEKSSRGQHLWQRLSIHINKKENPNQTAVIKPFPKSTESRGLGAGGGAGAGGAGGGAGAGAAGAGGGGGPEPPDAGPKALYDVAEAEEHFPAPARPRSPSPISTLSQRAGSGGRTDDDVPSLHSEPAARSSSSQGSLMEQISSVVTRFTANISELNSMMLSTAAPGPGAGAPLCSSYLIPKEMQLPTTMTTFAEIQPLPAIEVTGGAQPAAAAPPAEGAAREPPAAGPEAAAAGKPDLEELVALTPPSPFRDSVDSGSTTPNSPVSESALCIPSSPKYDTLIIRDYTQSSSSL
As to the kind of experiment: [3H]-MPEP mGluR5 receptor binding assay (pig brain homogenate). As to conditions: 5 nM [3H]-MPEP, read-out: IC50 mGluR5 Receptor (pig) [^3H]-MPEP Bond. The procedure, abridged: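 Compounds at 10 μM competed with 5 nM [3H]-MPEP for binding to pig brain membranes (450 μg protein) for 60 min at room temperature in pH 8.0 Hepes buffer. Bound radioactivity was collected on glass-fibre filters and read by β-counting, with 10 μM unlabelled MPEP giving non-specific binding.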
Regarding `COCC(=O)N(Cc1cc(-c2ccc3ncnc(NC4CC4)c3c2)ccc1F)C1CC1` [Example 390, N-cyclopropyl-N-(5-(4-(cyclopropylamino)quinazolin-6-yl)-2-fluorobenzyl)-2-methoxyacetamide], the IC50 came to 70 nM. Still for that read-out and setting: under `O=C(c1ccno1)N(Cc1cccc(-c2ccc3ncnc(NC4CC4)c3c2)c1)C1CC1` [Example 253, isoxazole-5-carboxylic acid cyclopropyl-[3-(4-cyclopropylamino-quinazolin-6-yl)-benzyl]-amide] stands 1310 nM.

The assay is the same for the next values; noted with them: 10 μM compound, 5 nM [3H]-MPEP.
For the compound `Cc1cc2ncnc(NC3CC3)c2cc1-c1cccc(CN(C2CC2)S(=O)(=O)c2ccccc2)c1` [Example 721, N-cyclopropyl-N-(3-(4-(cyclopropylamino)-7-methylquinazolin-6-yl)benzyl)benzole sulfonamide], the “% Inhibition of mGluR5 Receptor (pig) [^3H]-MPEP Bond at 10 μM” value (shortened to “% Inhibition of mGluR5 Receptor (pig)”) came to 87%. On the same count and under the same terms, under `O=C(c1ccncc1)N(Cc1cc(-c2ccc3ncnc(NC4CC4)c3c2)ccc1Cl)C1CC1` [Example 763, N-(2-chloro-5-(4-(cyclopropylamino)quinazolin-6-yl)benzyl)-N-cyclopropyl isonicotinamide] stands 86%. In the case of `O=S(=O)(c1cccc(C(F)(F)F)c1)N(Cc1cc(-c2ccc3ncnc(NC4CC4)c3c2)ccc1Cl)C1CC1` [Example 778, N-(2-chloro-5-(4-(cyclopropylamino)quinazolin-6-yl)benzyl)-N-cyclopropyl-3-(trifluoromethyl)benzole sulfonamide], the “% Inhibition of mGluR5 Receptor (pig)” value was determined as 84%. Still for that read-out and setting: under `O=S(=O)(c1c(F)c(F)c(F)c(F)c1F)N(Cc1cccc(-c2cc(F)c3ncnc(NC4CC4)c3c2)c1)C1CC1` [Example 761, N-cyclopropyl-N-(3-(4-(cyclopropylamino)-8-fluoroquinazolin-6-yl)benzyl)-2,3,4,5,6-pentafluorobenzole sulfonamide] stands 45%; under `CC(C)(C)Nc1ncnc2ccc(-c3ccc(F)c(CN(C(=O)c4cc(Cl)cc(Cl)c4)C4CC4)c3)cc12` [Example 820, N-(5-(4-(tert-butylamino)quinazolin-6-yl)-2-fluorobenzyl)-3,5-dichloro-N-cyclopropyl benzamide], 48%; under `CC(C)(C)Nc1ncnc2ccc(-c3ccc(F)c(CN(C(=O)c4ccccc4)C4CC4)c3)cc12` [Example 837, N-(5-(4-(tert-butylamino)quinazolin-6-yl)-2-fluorobenzyl)-N-cyclopropyl benzamide], 86%. For `CNc1ncnc2ccc(-c3cccc(CN(c4ccccc4F)S(=O)(=O)c4ccccc4)c3)cc12` [Example 852, N-(2-fluorophenyl)-N-(3-(4-(methylamino)quinazolin-6-yl)benzyl)benzole sulfonamide], the “% Inhibition of mGluR5 Receptor (pig)” value is 49%.

As for `CC(C)(C)Nc1ncnc2ccc(-c3ccc(F)c(CN(C4CC4)S(=O)(=O)Cc4ccccc4)c3)cc12` [Example 833, N-(5-(4-(tert-butylamino)quinazolin-6-yl)-2-fluorobenzyl)-N-cyclopropyl-1-phenyl methane sulfonamide], the “% Inhibition of mGluR5 Receptor (pig)” value is 43%.

The same assay, now with this note: 10 μM compound, 5 nM [3H]-MPEP, read-out: % Inhibition of mGluR5 Receptor (pig) [^3H]-MPEP Bond at 10 μM.
On to `CCN(CC)c1ncnc2ccc(-c3cccc(CN(C)C(=O)Cc4ccccn4)c3)cc12` [Example 68, N-[3-(4-diethylamino-quinazolin-6-yl)-benzyl]-N-methyl-2-pyridin-2-yl-acetamide], for which the inhibition at 10 µM is 30%. Turning to `Cc1cc2ncnc(NC3CC3)c2cc1-c1cccc(CN(C2CC2)S(=O)(=O)Cc2ccccc2)c1` [Example 713, N-cyclopropyl-N-(3-(4-(cyclopropylamino)-7-methylquinazolin-6-yl)benzyl)-1-phenylmethane sulfonamide], the inhibition at 10 µM worked out at 51%. Still for that read-out and setting: under `CC(C)S(=O)(=O)N(Cc1cccc(-c2ccc3ncnc(NCCc4ccccc4)c3c2)c1)C1CC1` [Example 818, N-cyclopropyl-N-(3-(4-(phenethylamino)quinazolin-6-yl)benzyl)propane-2-sulfonamide] stands 34%; under `c1cc(Cn2cccc2)cc(-c2ccc3ncnc(NC4CC4)c3c2)c1` [Example 876, 6-(3-((1H-pyrrol-1-yl)methyl)phenyl)-N-cyclopropylquinazoline-4-amine], 47%; under `COc1ccc(C(=O)N(Cc2cccc(-c3ccc4ncnc(NC5CC5)c4c3)c2)C2CC2)cc1` [Example 171, N-cyclopropyl-N-[3-(4-cyclopropylamino-quinazolin-6-yl)-benzyl]-4-methoxy-benzamide], 100%. The same measure, in the same setting: next, `Cc1cc2ncnc(NC3CC3)c2cc1-c1cccc(CN(C(=O)c2cccc(F)c2)C2CC2)c1` [Example 652, N-cyclopropyl-N-(3-(4-(cyclopropylamino)-7-methylquinazolin-6-yl)benzyl)-3-fluorobenzamide]: 93%. Turning to `Cc1cc2ncnc(NC3CC3)c2cc1-c1cccc(CN(C(=O)c2ccncc2)C2CC2)c1` [Example 707, N-cyclopropyl-N-(3-(4-(cyclopropylamino)-7-methylquinazolin-6-yl)benzyl)isonicotinamide], the inhibition at 10 µM amounted to 89%. Turning to `COCC(=O)N(Cc1cc(-c2ccc3ncnc(NC(C)(C)C)c3c2)ccc1F)C1CC1` [Example 846, N-(5-(4-(tert-butylamino)quinazolin-6-yl)-2-fluorobenzyl)-N-cyclopropyl-2-methoxyacetamide], the inhibition at 10 µM turned out to be 82%. Still for that read-out and setting: under `CCCCC(=O)N(Cc1cccc(-c2ccc3nc(C)nc(NC4CC4)c3c2)c1)C1CC1` [Example 519, N-cyclopropyl-N-(3-(4-(cyclopropylamino)-2-methylquinazolin-6-yl)benzyl)pentanamide] stands 76%.

On to `CCCN(Cc1cccc(-c2ccc3ncnc(Nc4ccccc4)c3c2)c1)C(=O)c1cc2ccccc2cn1` [Example 100, isoquinoline-3-carboxylic acid [3-(4-phenylamino-quinazolin-6-yl)-benzyl]-propyl-amide], for which the inhibition at 10 µM came out at 36%. For the compound `CC(C)Nc1ncnc2ccc(-c3cccc(CN(Cc4ccccc4)C(=O)c4ccccc4)c3)cc12` [Example 36, N-benzyl-N-[3-(4-isopropylamino-quinazolin-6-yl)-benzyl]-benzamide], the inhibition at 10 µM worked out at 42%. For `CC(C)Nc1ncnc2ccc(-c3cccc(CN(Cc4ccccc4)C(=O)CC#N)c3)cc12` [Example 53, N-benzyl-2-cyano-N-[3-(4-isopropylamino-quinazolin-6-yl)-benzyl]-acetamide], the inhibition at 10 µM amounted to 38%. `Cc1nc(NC2CC2)c2cc(-c3ccc(F)c(CN(C(=O)CCc4ccccc4)C4CC4)c3)ccc2n1` [Example 601, N-cyclopropyl-N-(5-(4-(cyclopropylamino)-2-methylquinazolin-6-yl)-2-fluorobenzyl)-3-phenylpropanamide]: the inhibition at 10 µM is 78%. On to `Cc1nc(NC2CC2)c2cc(-c3cccc(CN(C(=O)c4ccc(C(F)(F)F)cc4F)C4CC4)c3)ccc2n1` [Example 454, N-cyclopropyl-N-(3-(4-(cyclopropylamino)-2-methylquinazolin-6-yl)benzyl)-2-fluoro-4-(trifluoromethyl)benzamide], for which the inhibition at 10 µM was 34%.
